# Patent publication US9120749B2, “Quinoline derivatives and MELK inhibitors containing the same” (ONCOTHERAPY SCIENCE, INC., priority 2010, dated 2015)
# Structures can show the parent of a compound that is named as a salt. Where two headings read alike, the source gives them in different places.
# What was measured:
# HT-1197 cells = test: Cell-based assay: anti-proliferative activity, Cell Counting Kit-8, 72 hours (HT-1197, negative control without MELK expression); conditions: Homo sapiens, HT1197, 72 h, HT1197 cells (negative control, no MELK expression), 72 hours
# How it was run: (§1)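 First, lysates underwent western blotting with anti-MELK antibody to establish expression. Next, cells went into 96-well plates. Then candidate inhibitors were added. Finally, viability was determined by CCK-8 at 72 h and IC50 computed.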
# A549 cells = test: Cell-based assay: anti-proliferative activity, Cell Counting Kit-8, 72 hours (A549); conditions: Homo sapiens, A549, 72 h, 72 hours
# How it was run: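 A549 cells seeded in 96-well plates and exposed to candidate inhibitors for 72 hours. Growth measured with Cell Counting Kit-8; IC50 values calculated from the dose response.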
# 22Rv1 cells = test: Cell-based assay: anti-proliferative activity, Cell Counting Kit-8, 72 hours (22Rv1); conditions: Homo sapiens, 22Rv1, 72 h
# DU4475 cells = test: Cell-based assay: anti-proliferative activity, Cell Counting Kit-8, 72 hours (DU4475); conditions: Homo sapiens, DU-4475, 72 h
# T47D cells = test: Cell-based assay: anti-proliferative activity, Cell Counting Kit-8, 72 hours (T47D); conditions: Homo sapiens, T47D, 72 h
# How it was run: as §1
# MELK = MELK (Homo sapiens, UniProt Q14680); test: Kinase assay: MELK activity, phosphorylation of FITC-labeled histone H3 peptide measured by IMAP fluorescence polarization; format: biochemical; conditions: read-out: IC50 (μM) (kinase assay)
# Chain of MELK (Q14680 whole entry, looked up): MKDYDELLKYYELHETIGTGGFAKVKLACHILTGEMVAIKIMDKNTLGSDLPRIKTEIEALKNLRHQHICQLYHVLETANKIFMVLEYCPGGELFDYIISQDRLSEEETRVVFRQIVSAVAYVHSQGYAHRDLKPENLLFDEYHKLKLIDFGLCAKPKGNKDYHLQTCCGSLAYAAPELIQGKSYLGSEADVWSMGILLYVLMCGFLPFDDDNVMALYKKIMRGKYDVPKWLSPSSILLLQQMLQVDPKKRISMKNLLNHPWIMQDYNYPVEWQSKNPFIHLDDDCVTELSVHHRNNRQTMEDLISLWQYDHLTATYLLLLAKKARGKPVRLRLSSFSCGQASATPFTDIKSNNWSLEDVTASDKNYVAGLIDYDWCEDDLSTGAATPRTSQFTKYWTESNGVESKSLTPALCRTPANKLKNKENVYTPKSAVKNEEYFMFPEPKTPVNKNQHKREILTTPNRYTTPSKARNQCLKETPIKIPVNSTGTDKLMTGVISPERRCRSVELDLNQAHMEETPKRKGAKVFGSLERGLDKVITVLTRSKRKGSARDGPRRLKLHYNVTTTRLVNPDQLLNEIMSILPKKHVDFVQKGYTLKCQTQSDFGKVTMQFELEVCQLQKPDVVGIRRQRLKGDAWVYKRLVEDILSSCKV
# How it was run: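 Kinase reactions ran with or without test compound (final DMSO 1%) on a fluorescein-tagged H3 peptide. Progressive binding solution was added to terminate them. After a half-hour room-temperature incubation, polarization was measured.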
# [1] = MELK kinase assay, IMAP fluorescence polarization, 50 micro-M ATP
SMILES,IC50 (HT-1197 cells),IC50 (A549 cells),IC50 (22Rv1 cells),IC50 (DU4475 cells),IC50 (T47D cells),IC50 (MELK; [1]),IC50 (MELK)
"CC(=O)c1cnc2ccc(-c3cc(Cl)c(O)c(Cl)c3)cc2c1NC1CCN(CCN(C)C)CC1 [Example 823, 1-(6-(3,5-dichloro-4-hydroxyphenyl)-4-(1-(2-(dimethylamino)ethyl)piperidin-4-ylamino)quinolin-3-yl)ethanone]",2.6 µM,0.45 µM,0.32 µM,0.16 µM,0.21 µM,0.0027 µM,
"CCN(CC)C[C@H]1CC[C@H](Nc2c(C(C)=O)cnc3ccc(-c4cc(Cl)c(O)c(OC)c4)cc23)CC1 [Example 791, 1-(6-(3-chloro-4-hydroxy-5-methoxyphenyl)-4-(1R,4R)-4-((diethylamino)methyl)cyclohexylamino)quinolin-3-yl)ethanone hydrochloride]",9.3 µM,0.27 µM,0.49 µM,0.43 µM,0.58 µM,,0.0031 µM
"COc1cc(-c2ccc3ncc(C(C)=O)c(N[C@H]4CC[C@H](CN5CCC[C@H]5CO)CC4)c3c2)cc(Cl)c1O [Example 793, 1-(6-(3-chloro-4-hydroxy-5-methoxyphenyl)-4-((1S,4r)-4-(((S)-2-(hydroxymethyl)pyrrolidin-1-yl)methyl)cyclohexylamino)quinolin-3-yl)ethanone]",7.1 µM,0.17 µM,0.34 µM,0.33 µM,0.15 µM,,0.0018 µM
"CC(=O)c1cnc2ccc(-c3cc(F)c(O)c(Cl)c3)cc2c1NC1CCN(CCN(C)C)CC1 [Example 821, 1-(6-(3-chloro-5-fluoro-4-hydroxyphenyl)-4-(1-(2-(dimethylamino)ethyl)piperidin-4-ylamino)quinolin-3-yl)ethanone]",3.3 µM,0.59 µM,0.25 µM,0.17 µM,0.23 µM,0.0053 µM,
"CC(=O)c1cnc2ccc(-c3cc(F)c(O)c(Cl)c3)cc2c1Nc1ccc(N2CCC(N(C)C)C2)nc1 (stereo not drawn) [Example 853, 1-(6-(3-chloro-5-fluoro-4-hydroxyphenyl)-4-((6-(3-(dimethylamino)pyrrolidin-1-yl)pyridin-3-yl)amino)quinolin-3-yl)ethanone]",10 µM,0.45 µM,0.65 µM,0.38 µM,0.2 µM,0.018 µM,
"CC(=O)c1cnc2ccc(-c3cc(Cl)c(O)c(Cl)c3)cc2c1N[C@H]1CC[C@H](CN2CCC(N)C2)CC1 (stereo partly drawn) [Example 779, 1-(4-(1R,4R)-4-((3-aminopyrrolidin-1-yl)methyl)cyclohexylamino)-6-(3,5-dichloro-4-hydroxyphenyl)quinolin-3-yl)ethanone hydrochloride]",10 µM,1 µM,0.23 µM,0.13 µM,0.14 µM,,0.0017 µM
"CN1CCN(CCc2cccc(Nc3c(C(=O)C4CC4)cnc4ccc(-c5cc(F)c(O)c(Cl)c5)cc34)c2)CC1 [Example 828, (6-(3-chloro-5-fluoro-4-hydroxyphenyl)-4-(3-(2-(4-methylpiperazin-1-yl)ethyl)phenylamino)quinolin-3-yl)(cyclopropyl)methanone]",9.5 µM,0.23 µM,0.72 µM,0.16 µM,5.7 µM,0.017 µM,
CCN(CC)C[C@H]1CC[C@H](Nc2c(C(C)=O)cnc3ccc(-c4cc(F)c(O)c(Cl)c4)cc23)CC1 [Example 794],0.75 µM,0.077 µM,0.094 µM,0.074 µM,0.031 µM,,0.0056 µM
"CCN(C)C[C@H]1CC[C@H](Nc2c(C(C)=O)cnc3ccc(-c4cc(Cl)c(O)c(OC)c4)cc23)CC1 [Example 816, 1-(6-(3-chloro-4-hydroxy-5-methoxyphenyl)-4-(1R,4R)-4-((ethyl(methyl)amino)methyl)cyclohexylamino)quinolin-3-yl)ethanone hydrochloride]",7.3 µM,0.25 µM,0.44 µM,0.36 µM,0.28 µM,0.0027 µM,
"O=C(c1cnc2ccc(-c3cc(F)c(O)c(F)c3)cc2c1Nc1ccc(CN2CCCC2)nc1)C1CC1 [Example 795, cyclopropyl(6-(3,5-difluoro-4-hydroxyphenyl)-4-(6-(pyrrolidin-1-ylmethyl)pyridin-3-ylamino)quinolin-3-yl)methanone]",3.5 µM,0.34 µM,0.83 µM,0.31 µM,0.51 µM,,0.035 µM
"CN(C)CCc1cccc(Nc2c(C(=O)C3CC3)cnc3ccc(-c4cc(F)c(O)c(F)c4)cc23)c1 [Example 796, cyclopropyl(6-(3,5-difluoro-4-hydroxyphenyl)-4-(3-(2-(dimethylamino)ethyl)phenylamino)quinolin-3-yl)methanone]",0.67 µM,0.14 µM,0.52 µM,0.14 µM,0.43 µM,,0.026 µM
"CN1CCN(CCc2cccc(Nc3c(C(=O)C4CC4)cnc4ccc(-c5cc(Cl)c(O)c(Cl)c5)cc34)c2)CC1 [Example 829, cyclopropyl(6-(3,5-dichloro-4-hydroxyphenyl)-4-(3-(2-(4-methylpiperazin-1-yl)ethyl)phenylamino)quinolin-3-yl)methanone]",5.7 µM,0.087 µM,0.23 µM,0.057 µM,0.7 µM,0.0051 µM,
"CC(=O)c1cnc2ccc(-c3cc(Cl)c(O)c(Cl)c3)cc2c1N[C@H]1CCC[C@@H](CN(C)C)C1 [Example 827, 1-(6-(3,5-dichloro-4-hydroxyphenyl)-4-((1S,3R)-3-((dimethylamino)methyl)cyclohexylamino)quinolin-3-yl)ethanone hydrochloride]",5.9 µM,0.51 µM,0.43 µM,0.2 µM,0.49 µM,0.0033 µM,
"CC(=O)c1cnc2ccc(-c3cc(Cl)c(O)c(Cl)c3)cc2c1N[C@H]1CC[C@H](CN2CCNCC2)CC1 [Example 772, 1-(6-(3,5-dichloro-4-hydroxyphenyl)-4-((trans-4-(piperazin-1-ylmethyl)cyclohexyl)amino)quinolin-3-yl)ethanone dihydrochloride]",3.2 µM,0.26 µM,0.14 µM,0.076 µM,0.058 µM,,0.0021 µM
"CCC(=O)c1cnc2ccc(-c3cc(F)c(O)c(Cl)c3)cc2c1Nc1ccc(N2CCC(N(C)C)C2)nc1 (stereo not drawn) [Example 860, 1-(6-(3-chloro-5-fluoro-4-hydroxyphenyl)-4-((6-(3-(dimethylamino)pyrrolidin-1-yl)pyridin-3-yl)amino)quinolin-3-yl)propan-1-one]",3.6 µM,0.29 µM,0.45 µM,0.24 µM,0.14 µM,0.0062 µM,
"CC(=O)c1cnc2ccc(-c3cc(F)c(O)c(Cl)c3)cc2c1Nc1cnn(C2CCN(C)CC2)c1 [Example 805, 1-(6-(3-chloro-5-fluoro-4-hydroxyphenyl)-4-(1-(1-methylpiperidin-4-yl)-1H-pyrazol-4-ylamino)quinolin-3-yl)ethanone hydrochloride]",2.4 µM,0.34 µM,0.32 µM,0.11 µM,0.17 µM,,0.0028 µM
"CC(=O)c1cnc2ccc(-c3cc(F)c(O)c(Cl)c3)cc2c1Nc1ccc(N2CCC(N)C2)nc1 (stereo not drawn) [Example 773, 1-(4-(6-(3-aminopyrrolidin-1-yl)pyridin-3-ylamino)-6-(3-chloro-5-fluoro-4-hydroxyphenyl)quinolin-3-yl)ethanone]",0.7 µM,0.028 µM,0.0094 µM,0.017 µM,0.0042 µM,,0.006 µM
CC(=O)c1cnc2ccc(-c3cc(Cl)c(O)c(Cl)c3)cc2c1N[C@H]1CC[C@H](CN2CCCC(N)C2)CC1 (stereo partly drawn) [Example 810],2.3 µM,0.12 µM,0.056 µM,0.044 µM,0.034 µM,,0.0018 µM
"CC(=O)c1cnc2ccc(-c3cc(F)c(O)c(Cl)c3)cc2c1N[C@H]1CC[C@H](N(C)C)CC1 [Example 763, 1-{6-(3-Chloro-5-fluoro-4-hydroxyphenyl)-4-[trans-4-(dimethylamino)cyclohexylamino]quinolin-3-yl}ethanone]",1.8 µM,0.27 µM,0.14 µM,0.093 µM,0.05 µM,,0.0087 µM
"COc1cc(-c2ccc3ncc(C(C)=O)c(N[C@H]4CC[C@H](CN5CCC(N)C5)CC4)c3c2)cc(Cl)c1O (stereo partly drawn) [Example 780, 1-(4-(1R,4R)-4-((3-aminopyrrolidin-1-yl)methyl)cyclohexylamino)-6-(3-chloro-4-hydroxy-5-methoxyphenyl)quinolin-3-yl)ethanone hydrochloride]",3.2 µM,0.62 µM,0.67 µM,1.5 µM,0.41 µM,,0.002 µM
"COc1cc(-c2ccc3ncc(C(C)=O)c(N[C@H]4CC[C@H](CN5CCN(C)CC5)CC4)c3c2)cc(Cl)c1O [Example 787, 1-(6-(3-chloro-4-hydroxy-5-methoxyphenyl)-4-(1R,4R)-4-((4-methylpiperazin-1-yl)methyl)cyclohexylamino)quinolin-3-yl)ethanone hydrochloride]",5.2 µM,0.44 µM,0.72 µM,2.7 µM,0.48 µM,,0.0058 µM
